Consider 33 compounds from PubChem BioAssay (NCI).

Structures are written as SMILES.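 Briefly, cells in 96-well plates were exposed to five compound concentrations for 48 h, and endpoints were estimated by linear interpolation. TGI is the concentration that stops growth completely.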

Holding throughout (assay): DTP human tumour cell line panel, 48 h
For experiment [1], the system named is DMS 114 small cell lung.
The subject of experiment [2] is MDA-MB-435.
Experiment [3] deals with BT-549 breast.
Experiment [4] deals with HOP-18 NSCLC.
The test system of experiment [5] is DLD-1 colon.
In experiment [6] the test system is MCF7 breast.
Experiment [7] has as its system LXFL 529 NSCLC.
Experiment [8] has as its system NCI/ADR-RES ovarian.
The subject of experiment [9] is T-47D breast.
In experiment [10] the test system is DU-145 prostate.
Experiment [11] concerns DMS 273 small cell lung.
For experiment [12], the system named is MDA-MB-231 breast.

As to `COc1ccc(NC(=O)CC(=O)n2nc(-c3ccccc3)c(N=Nc3ccc(C)cc3)c2-c2ccccc2)cc1`, the TGI in experiment [1] was over 80.1 µM; in experiment [2], over 100 µM; in experiment [3], over 58 µM; in experiment [4], over 78.3 µM; in experiment [5], over 100 µM; in [6] it was over 85.2 µM. Besides, the TGI in experiment [7] was over 100 µM; in experiment [8], over 61 µM; in experiment [9], over 75 µM; in [10] it was over 100 µM; in experiment [11], over 100 µM; in experiment [12] it was over 59.6 µM.
Turning to `COC(=O)c1nc(N)[nH]c(=O)c1-c1ccc(Cl)cc1`, the TGI in experiment [1], in experiment [5], in experiment [7] and in experiment [11] was over 100 µM throughout.
As for `O=C(/C=C(\O)C(=O)O)/C=C(\O)c1ccc(Cl)cc1`, the TGI in experiment [1], in experiment [4], in experiment [5], in [7] and in [11] was over 100 µM throughout.
Consider `CC(C)CCC[C@@H](C)C1CCC2[C@@H]3CC=C4C[C@@H](OC(=O)CCC(=O)NCC[N+](C)(C)CCCS(=O)(=O)[O-])CC[C@]4(C)C3CC[C@@]21C` (stereo partly specified), for which the TGI stood at 36.1 µM in experiment [1]; 97.2 µM in experiment [4]; 44.9 µM in experiment [5]; 71.6 µM in experiment [7]; 28.5 µM in experiment [11].
Take `CCCCc1c2c(nc3c1CCc1cc(C=O)c(N)nc1-3)/C(=C/c1ccccc1)CCC2`: the TGI in experiment [1], in experiment [4], in experiment [7] and in [11] was over 100 µM throughout.
For `COc1cc2c3c(c1OC)C1(C=CC(=O)C=C1)CC3N(C(=O)OC(C)(C)C(Cl)(Cl)Cl)CC2` (stereo unspecified), the TGI in experiment [1] was found to be 22 µM; in [4] it was 50.4 µM; in experiment [5] it was 23.5 µM; in [7], 82.9 µM; in [11], 24.5 µM.
`Cc1cccc2c1NC(c1c(C)[nH]c3ccccc13)C2` (stereo unspecified): the TGI in experiment [1], in experiment [4], in experiment [5] and in experiment [7] was over 100 µM in each case.
Turning to `Cn1c(=O)c(C2c3ccccc3Oc3c2c(=O)n(C)c2ccccc32)c(O)c2ccccc21` (stereo unspecified), the TGI in experiment [1], in experiment [4], in [5], in [7] and in experiment [11] was over 100 µM in each case.
Turning to `COc1ccc2c(c1)C(CCN)C(=O)N2` (stereo unspecified), the TGI in [1], in experiment [4], in experiment [5], in experiment [7] and in experiment [11] was over 100 µM throughout.
As to `O=C(CC1Sc2ccccc2NC1=O)Nc1ccc([N+](=O)[O-])cc1[N+](=O)[O-]` (stereo unspecified), the TGI was found to be 27.5 µM in experiment [1], 46 µM in experiment [4], 28.6 µM in [5] and 28.7 µM in experiment [7].
Regarding `CCCCCCCCOCC(O)COC` (stereo unspecified), the TGI in [1], in experiment [4], in experiment [5], in [7] and in [11] was over 100 µM in each case.
Turning to `O=C1/C=C(/c2ccc(O)cc2)[C@H](O)Cc2ccc(OC3OC(CO)C(O)C(O)C3O)cc2O1` (stereo partly specified) (tested in a mixture with another compound), the TGI in [1], in experiment [5] and in experiment [7] was over 100 µM throughout.
In the case of `COC1=C(C(=O)OC(C)(C)C)C23CCCCC2(C(C(=O)OC(C)(C)C)=C(OC)C3C(=O)OC(C)(C)C)C1C(=O)OC(C)(C)C` (stereo unspecified), the TGI in experiment [1], in experiment [4], in experiment [5], in experiment [7] and in experiment [11] was over 100 µM each time.
Turning to `COc1cc(OC)c(Oc2cccc(OC)c2OC)c(OC)c1`, the TGI in experiment [1] is over 100 µM; in [4], 89.5 µM; in experiment [5], over 100 µM; in [7] it was over 100 µM; in [11], over 100 µM.
Consider `COc1ccc(-c2cc(-c3ccco3)c(C#N)c(=O)n2C2OC(OC(=O)c3ccccc3)C(OC(=O)c3ccccc3)C2OC(=O)c2ccccc2)cc1` (stereo unspecified), for which the TGI in [1], in experiment [4], in experiment [5], in experiment [7] and in experiment [11] was over 100 µM each time.
With `COc1ccccc1NC(=O)CC(=O)NNCC(=O)Nc1nc(-c2ccccc2)cs1`, the TGI in [1], in experiment [4], in experiment [5], in experiment [7] and in experiment [11] was over 100 µM each time.
Take `COC(=O)CC[C@@H](NC(=O)C(C)NC(=O)COC1C(O)C(COC(=O)CCCCCCCCCCNC(=O)c2ccc([N+](=O)[O-])c3[nH]c4cc(Br)ccc4c(=O)c23)OC(OCc2ccccc2)C1NC(C)=O)C(N)=O` (stereo partly specified): the TGI is over 100 µM in [1]; over 100 µM in [4]; over 100 µM in experiment [5]; 66.3 µM in experiment [7]; over 100 µM in [11].
On to `NNC(=S)N/N=C(\c1nc2ccc(Cl)cc2[nH]c1=O)C(O)c1ccc(Cl)cc1Cl` (stereo unspecified), for which the TGI in experiment [1], in [4], in experiment [5], in [7] and in [11] was over 100 µM in each case.
As to `O=C(O)C(=O)/C=C\c1ccc(Cl)cc1`, the TGI in experiment [1], in experiment [4], in experiment [5], in experiment [7] and in experiment [11] was over 100 µM throughout.
For `CCOc1cccc2cccnc12`, the TGI in experiment [1], in experiment [4], in experiment [5] and in experiment [7] was over 100 µM each time.
For `CC(=O)OCC1OC(n2c(-c3ccc(N)cc3)cc(-c3ccco3)c(C#N)c2=O)C(OC(C)=O)C(OC(C)=O)C1OC(C)=O` (stereo unspecified), the TGI in experiment [1], in [4], in [5], in experiment [7] and in experiment [11] was over 50 µM throughout.
As to `COC(=O)C1=C(SC)SC2(C(=O)OC)C3C=C(C)C4C(N13)C42C(=O)OC` (stereo unspecified), the TGI in [1], in experiment [5], in [7] and in [11] was over 100 µM in each case.
For the compound `N#CC1(Cc2ccccc2Cl)c2ccccc2C=CN1C(=O)c1ccccc1` (stereo unspecified), the TGI in experiment [1], in [4], in experiment [7] and in [11] was over 100 µM throughout.
On to `c1cc(C2O[C@H]3CCCN3[C@@H]2c2ccncc2)ccn1` (stereo partly specified), for which the TGI in [1], in [5], in experiment [7] and in experiment [11] was over 100 µM in each case.
Turning to `Cc1cc(C)cc(NC(=O)CCC(=O)C2CCC/C2=N\NC(=O)C(=O)NN)c1` (stereo unspecified), the TGI in experiment [1], in experiment [4], in [5], in experiment [7] and in experiment [11] was over 100 µM throughout.
For the compound `O=c1c2ccccc2oc2nccnc12`, the TGI in experiment [1], in experiment [4], in experiment [5], in [7] and in [11] was over 100 µM throughout.
For `COc1cc(C=C2C(=O)OC(C)(C)OC2=O)cc(OC)c1OC`, the TGI in [1], in [4], in experiment [5], in experiment [7] and in experiment [11] was over 100 µM in each case.
As to `O=C(Nc1ccc(Cl)cc1Cl)c1c/c(=N\O)c2ccc(O)cc2o1`, the total growth inhibition concentration (TGI) in experiment [1], in experiment [4], in [5] and in [7] was over 100 µM each time.
As to `CC1=NN(C(=O)CC(=O)Nc2ccccc2)C(=O)C1N=Nc1ccc(S(N)(=O)=O)cc1` (stereo unspecified), the TGI in experiment [1], in [4], in [5], in experiment [7] and in experiment [11] was over 100 µM each time.
As for `COC(=O)c1ccc2n[se]nc2c1`, the TGI in experiment [1], in [4], in [5], in experiment [7] and in [11] was over 100 µM each time.
As to `COc1ncn(C2C=C(CO)C(O)C2O)c(=O)n1` (stereo unspecified), the TGI in experiment [1], in experiment [4], in [5], in experiment [7] and in experiment [11] was over 100 µM in each case.
As to `CC(=O)OC1CC[C@@]2(C)C(CC(OC3OC(CO)C(O)C(O)C3O)[C@]3(C)C2CCC24CC23CC[C@H]4C(C)CC(O)[C@@H](O)C(C)(C)O)C1(C)C` (stereo partly specified), the TGI in [1] is 20.6 µM; in experiment [4], 41 µM; in experiment [5], over 50 µM; in experiment [7], 16.1 µM; in experiment [11] it was over 50 µM.
`C[N+](C)(C)CC(=O)NC(=O)N/N=C\C(CC#N)CN(Cc1ccccc1)Cc1ccccc1` (stereo unspecified): the TGI in experiment [1], in [4], in [5], in [7] and in experiment [11] was over 100 µM each time.
